Where a name gives a salt, the structure may show the parent alone.
Tests used:
corneal epithelium = details: cited from earlier work
[1] = tested on: epithelial cell junctures of human donor corneal tissue; test: Confocal microscopy of fluorescent-tagged decorin penetration into donor cornea; type: in vitro ADME; details: for disruption of epithelial cell junctures permitting diffusion of human recombinant decorin: human donor cornea, agent applied 30 seconds to central cornea by applicator before fluorescent-tagged decorin
Text: Confocal Microscopy of glutaric anhydride treated cornea. Four donor corneas were obtained from Insight Biomed (Minneapolis, Minn.). All cornea tested negative for viral contamination. Corneas were rejected for transplantation due to storage expiration, low endothelial cell counts or other factors not related to epithelial cell integrity and stromal structure. All corneas were examined by slit-lamp microscopy for epithelial cell integrity. Corneas were stored in Optisol (Bausch & Lomb) for storage. Confocal microscopy was conducted at the Department of Surgical Research, Dartmouth-Hitchcock Medical Center, Lebanon, N.H. Two corneas were untreated controls and two were treated with glutaric anhydride followed by application of fluorescent-tagged human recombinant decorin. […] Fluorescent-tagged decorin was prepared by reacting decorin with Oregon Green 488 using a labeling kit from Molecular Probes.
All corneas were placed on a convex silicone pad and secured with pins. This allowed exposure to the corneal surface in a fixed position. All treatment solutions were administered using an applicator to localize exposure to the central corneal surface. Control cornea were treated with Proparacaine HCl for 1 minute followed by treatment with 0.5 mL of 0.2M sodium phosphate buffer (pH 8.3-8.5) for 30 seconds, 0.5 mL of saline rinse for 30 seconds, and then 0.1 mL of fluorescent-tagged human recombinant decorin. T reated cornea were treated with Proparacaine HCl for 1 minute, followed by treatment with 0.5 mL of 0.2M sodium phosphate buffer (pH 8.3-8.5) for 30 seconds, glutaric anhydride (dissolved immediately before application in sodium phosphate buffer (pH 8.3-8.5) at 5 mg/mL) for 30 seconds, saline rinsed, and then treated with 0.1 mL of fluorescent-tagged human recombinant decorin. Control and treated corneas were examined for decorin diffusion into the stroma using the Zeis confocal microscope (Model LSM 510 Meta; C apo 40×, NA=1.2, Thornwood, N.Y.).
Confocal Microscopy of acetic anhydride treated cornea. The protocol was the same as that described above for glutaric anhydride treatment. All treatment solutions were administered using an applicator to localize exposure to the central corneal surface. The applicator used to apply solutions to the corneal surface was similar in design to that described in the co-pending provisional application entitled “APPARATUS TO IMPROVE LOCALIZED CONCENTRATION OF FLUIDS IN OCULAR ENVIRONMENTS” to Bruce DeWoolfson and Michael Luttrell, provisional application No. 61/064,731, filed Mar. 24, 2008, incorporated herein by reference in its entirety. Control cornea were treated with Proparacaine HCl for 1 minute followed by treatment with 0.5 mL of 0.2M sodium phosphate buffer (pH 8.3-8.5) for 30 seconds, 0.5 mL of saline rinse for 30 seconds, and then 0.1 mL of fluorescent-tagged human recombinant decorin. Treated cornea were treated with Proparacaine HCl for 1 minute, followed by treatment with 0.5 mL of 0.3M sodium phosphate buffer (pH 8.3-8.5) for 30 seconds, acetic anhydride (3 μL) (diluted with 0.3M sodium phosphate buffer (pH 8.3-8.5) immediately before application) for 30 seconds, saline rinsed, and then treatment with 0.1 mL of fluorescent-tagged human recombinant decorin. Control and treated corneas were examined for decorin diffusion into the stroma using the Zeis confocal microscope (Model LSM 510 Meta; C apo 40×, NA=1.2, Thornwood, N.Y.).

feline cornea [2] = test: Corneal Hysteresis, Feline Study #1 (Reichert Ocular Response Analyzer); type: in vivo, cat; design: Corneal Hysteresis (CH): unit not given here
Protocol: Cats were placed in three treatment groups. One eye from two cats were untreated controls. All treatment solutions were administered using an applicator to localize exposure to the central corneal surface. The applicator used to apply solutions to the corneal surface was similar in design to that described in the co-pending provisional application entitled “APPARATUS TO IMPROVE LOCALIZED CONCENTRATION OF FLUIDS IN OCULAR ENVIRONMENTS” to Bruce DeWoolfson and Michael Luttrell, provisional application No. 61/064,731, filed Mar. 24, 2008, incorporated herein by reference in its entirety. Two eyes was treated with Proparacaine HCl, followed by treatment with 0.5M sodium phosphate buffer (pH 8.35), then with 3 mg of glutaric anhydride dissolved in 0.6 mL of sodium phosphate buffer, then with sodium phosphate buffer, followed by 1.5 μL of acetic anhydride diluted in 0.6 mL of sodium phosphate buffer, a second treatment with 1.5 μL of acetic anhydride in 0.6 mL of sodium phosphate buffer, a buffer rinse and finally treatment with 0.6 mL of human recombinant decorin (4.47 mg/mL).
Two eyes were treated as above but without a final treatment with decorin solution. All eyes were clinically evaluated immediately post-treatment. Three days following treatment, eyes were enucleated and the corneas removed, placed in formalin containing Cupromeronic blue.
Measurements of Corneal Hysteresis (CH) in the animals treated in Example 2. Corneal Hysteresis is a measure of the biomechanical strength of the cornea and is measured using the Reichert Ocular Response Analyzer. The Reichert Ocular Response Analyzer utilizes a dynamic bi-directional applanation process to measure the biomechanical properties of the cornea and the Intraocular Pressure of the eye. The basic output of the measurement process is a Goldmann-correlated pressure measurement (IOPG), and a new measure of corneal tissue properties called Corneal Hysteresis (CH).

feline cornea [3] = test: Corneal Hysteresis, Feline Study #2 (Reichert Ocular Response Analyzer); type: in vivo, cat; design: Corneal Hysteresis (CH): unit not given here
Protocol: A second study was conducted to examine the effects of acylation on “softening” or destabilizing corneal structural integrity using the Reichert Ocular Response Analyzer. Five subject animals were included in this study. One eye of each animal was treated with the contralateral eye serving as the control. For three animal subjects treatment eyes were evaluated for corneal hysteresis using the Reichert Ocular Response Analyzer before treatment and then after treatment with Proparacaine HCL, acetic anhydride diluted in sodium phosphate solution at a pH of 8.3-8.5, and decorin. For two animal subjects, no acylation agent was applied to the cornea. Instead, a 4 mm trephine was used to penetrate the corneal epithelium to provide a track for decorin penetration. Corneal hysteresis results are shown below in Table 2.

stromal collagen fibers = test: Transmission electron microscopy of decorin-treated cat cornea (first study); type: in vivo; details: cat eyes exposed to 50 μg decorin for 1, 3 or 5 days, no applicator; versus control cornea
Protocol: The following study was conducted at the Department of Surgical Research, Dartmouth-Hitchcock Medical Center, Lebanon, N.H. Five adult female cats were included in the study. All animals procured from Liberty Laboratories and were identified by ear tattoo. Ocular toxicity was determined by slit-lamp examination and measurement of endothelial cell structure. Decorin penetration into the corneal stroma was determined utilizing transmission electron microscopy. Cornea treated with decorin were reacted with Quinolinic Blue Stain (Cupromeronic blue) in buffered formalin. This reagent stains small proteoglycan structures such as decorin.
Cats were placed in three treatment groups. One eye from each group was treated with decorin. Three eyes were controls. Treated eyes were exposed to 50 μg of decorin for 1 day, 3 days or 5 days. Decorin solution was administered to the corneal using a sterile transfer pipet. An applicator was not used to localize the solution to the central corneal surface. All eyes were clinically evaluated immediately post-treatment and at days 2, 3, 5, and 8. One month after final treatment, eyes were reexamined and then enucleated. Each eye was sectioned. One half was placed in Formalin for subsequent histological analysis. The other half was again divided in half, one half prepared for Transmission Electron Microscopy. […]

[4] = Animal IBT4 treated eye, after the named step of the sequence Proparacaine, GA, AA #1, AA #2, decorin, Initial 4.0
[5] = Animal QKU8 treated eye, no decorin, after the named step of the sequence, Initial 7.0
[6] = Animal QKU8 treated eye, after the named step of the sequence, Initial 6.4
[7] = Animal QNO6 treated eye, no decorin, after the named step of the sequence, Initial 6.3
[8] = Animal AHH3, after the named step of Proparacaine HCL, acetic anhydride, decorin, Initial 8.75
[9] = Animal QJD4, after the named step of Proparacaine HCL, acetic anhydride, decorin, Initial 6.9
[10] = Animal RAF6, after the named step of Proparacaine HCL, acetic anhydride, decorin, Initial 5.88

Q: With `C[C@@H]1CC[C@@]2(OC1)O[C@H]1[C@@H](O)[C@H]3[C@@H]4CC[C@H]5C[C@@H](O[C@@H]6O[C@H](CO)[C@H](O[C@@H]7O[C@H](CO)[C@@H](O)[C@H](O[C@@H]8OC[C@@H](O)[C@H](O)[C@H]8O)[C@H]7O[C@@H]7O[C@H](CO)[C@H](O)[C@H](O[C@@H]8O[C@H](CO)[C@@H](O)[C@H](O)[C@H]8O)[C@H]7O)[C@H](O)[C@H]6O)[C@H](O)C[C@]5(C)[C@H]4CC[C@]3(C)[C@H]1[C@@H]2C` [digitonin] as the molecule, how does the “effect of pretreating cornea on drug penetration” value (corneal epithelium; Shih and Lee) read?
A: enhance penetration of timolol

Q: And the “effect of pretreating cornea on epithelium layers” value (corneal epithelium; Shih and Lee)?
A: exfoliate the top 2 layers of epithelium

Q: For cetylpyridium chloride, which “effect on corneal epithelium” value (corneal epithelium; 0.02%, Godbey) is on record?
A: disrupted the top layers of epithelial cells

Q: What does the source list for `CC(=O)OC(C)=O` [acetic anhydride]?
A: disruption of epithelial cell junctures permitting diffusion of human recombinant decorin [1]: successfully disrupted the epithelial cell junctures; Corneal Hysteresis (CH) (feline cornea [2]; Animal IBT4 treated eye, Post-AA #2 (second acetic anhydride treatment), Initial 4.0): 3.9; Corneal Hysteresis (CH) (feline cornea [2]; [4]): 3.2; Corneal Hysteresis (CH) (feline cornea [2]; [5]): 5.7; Corneal Hysteresis (CH) (feline cornea [2]; Animal QKU8 treated eye, Post-AA #2, Initial 6.4): 6.7; Corneal Hysteresis (CH) (feline cornea [2]; Animal QKU8 treated eye, Post-AA #2, Initial 7.0): 4.8; Corneal Hysteresis (CH) (feline cornea [2]; [6]): 7.0; Corneal Hysteresis (CH) (feline cornea [2]; [7]): 5.7; Corneal Hysteresis (CH) (feline cornea [2]; Animal QNO6 treated eye, Post-AA #2, Initial 6.3): 3.8; Corneal Hysteresis (CH) (feline cornea [3]; [8]): 5.73; Corneal Hysteresis (CH) (feline cornea [3]; [9]): 3.9; Corneal Hysteresis (CH) (feline cornea [3]; [10]): 4.15

Q: Which “Corneal Hysteresis (CH)” value (feline cornea [2]; [4]) does the source give for `CCCOc1ccc(C(=O)OCCN(CC)CC)cc1N` [Proparacaine, Proparacaine HCl, reference compound] here?
A: 7.0

Q: What about the “Corneal Hysteresis (CH)” value (feline cornea [2]; [5]) of the same molecule?
A: 7.5

Q: And the “Corneal Hysteresis (CH)” value (feline cornea [2]; [6])?
A: 8.0

Q: What about the “Corneal Hysteresis (CH)” value (feline cornea [2]; [7]) of the same molecule?
A: 7.0

Q: Which results are given for `O=C1CCCC(=O)O1` [glutaric anhydride]?
A: disruption of epithelial cell junctures permitting diffusion of human recombinant decorin [1]: successfully disrupted the epithelial cell junctures; Corneal Hysteresis (CH) (feline cornea [2]; [4]): 3.3; Corneal Hysteresis (CH) (feline cornea [2]; [5]): 6.4; Corneal Hysteresis (CH) (feline cornea [2]; [6]): 5.3; Corneal Hysteresis (CH) (feline cornea [2]; [7]): 6.4

B1: human recombinant decorin: Human recombinant Decorin prepared from CHO-S cells, MW approximately 40,000 daltons; stabilization molecule (small leucine-rich proteoglycan) (protein, UniProt P07585 31-359, looked up)
Decorin: DEASGIGPEVPDDRDFEPSLGPVCPFRCQCHLRVVQCSDLGLDKVPKDLPPDTTLLDLQNNKITEIKDGDFKNLKNLHALILVNNKISKVSPGAFTPLVKLERLYLSKNQLKELPEKMPKTLQELRAHENEITKVRKVTFNGLNQMIVIELGTNPLKSSGIENGAFQGMKKLSYIRIADTNITSIPQGLPPSLTELHLDGNKISRVDAASLKGLNNLAKLGLSFNSISAVDNGSLANTPHLRELHLDNNKLTRVPGGLAEHKYIQVVYLHNNNISVVGSSDFCPPGHNTKKASYSGVSLFSNPVQYWEIQPSTFRCVYVRSAIQLGNYK
Q: With B1 as the molecule, how does the “decorin penetration into cornea” value ([1]; control cornea, epithelial cell junctures not disrupted, applied directly to central cornea) read?
A: limited to the epithelium

Q: And the “decorin penetration into cornea” value ([1]; cornea pretreated with acetic anhydride (3 μL) for 30 seconds)?
A: penetrated the corneal stroma

Q: And the “decorin penetration into cornea” value ([1]; cornea pretreated with glutaric anhydride 5 mg/mL for 30 seconds)?
A: penetrated the corneal stroma

Q: And the “molecular bridges (links between fibers) between collagen fibers, TEM” value (stromal collagen fibers)?
A: increase in molecular bridges

Q: What about the “Corneal Hysteresis (CH)” value (feline cornea [2]; [4]) of the same molecule?
A: 4.6

Q: And the “Corneal Hysteresis (CH)” value (feline cornea [2]; [6])?
A: 7.9

Q: And the “change of corneal hysteresis (CH), in words” value (feline cornea [2]; Feline Study #1, sequential acylation then decorin)?
A: increased CH values to levels greater than initial values

Q: What about the “Corneal Hysteresis (CH)” value (feline cornea [3]; [8]) of the same molecule?
A: 7.3

Q: And the “Corneal Hysteresis (CH)” value (feline cornea [3]; Animal BEA4, no acylation agent, 4 mm trephine through epithelium, Initial 3.65)?
A: 4.8

Q: What about the “Corneal Hysteresis (CH)” value (feline cornea [3]; Animal IRH6, no acylation agent, 4 mm trephine through epithelium, Initial 7.98) of the same molecule?
A: 8.03

Q: And the “Corneal Hysteresis (CH)” value (feline cornea [3]; [9])?
A: 6.3

Q: What about the “Corneal Hysteresis (CH)” value (feline cornea [3]; [10]) of the same molecule?
A: 5.18

Q: What about the “change of CH values, in words” value (feline cornea [3]; Feline Study #2, acylation agent treated cornea) of the same molecule?
A: increased CH values

Q: What about the “change of CH values, in words” value (feline cornea [3]; Feline Study #2, trephined but not acylation agent treated cornea) of the same molecule?
A: minimal increase in CH values

Source: patent publication US20110086802A1, “METHODS TO INCREASE PERMEABILITY OF CORNEAL EPITHELIUM AND DESTABILIZE STROMAL COLLAGEN FIBRIL NETWORK” (priority 2008, published 2011)
